Patent US20220370451A1, “INHIBITORS OF HUMAN IMMUNODEFICIENCY VIRUS REPLICATION” (VIIV HEALTHCARE UK ( No. 5) LIMITED, priority 2019, published 2022)
pEC50: −log10 of the molar value. Read-outs that look alike come from different tables or passages of the source.

Assays:
Assay type in all cases: cell-based
recombinant NL4-3 virus = assay: HIV cell culture assay (luciferase reporter antiviral activity)
Description: HIV cell culture assay—MT=2 cells, 293T cells and the proviral DNA clone of NL4-3 virus were obtained from the NIH AIDS Research and Reference Reagent Program. MT=2 cells were propagated in RPMI 1640 media supplemented with 10% heat inactivated fetal bovine serum (FBS), […] penicillin G and up to 100 units/mL streptomycin. The 293T cells were propagated in DMEM media supplemented with 10% heat inactivated FBS, […] penicillin G and […] streptomycin. A recombinant NL4-3 proviral clone, in which a section of the nef gene was replaced with the Renilla luciferase gene, was used to make the reference virus used in these studies. The recombinant virus was prepared through transfection of the recombinant NL4-3 proviral clone into 293T cells using Transit-293 Transfection Reagent from Mirus Bio LLC (Madison, Wis.). Supernatent was harvested after 2-3 days and the amount of virus present was titered in MT=2 cells using luciferase enzyme activity as a marker by measuring luciferase enzyme activity. Luciferase was quantitated using the EnduRen Live Cell Substrate from Promega (Madison, Wis.). Antiviral activities of compounds toward the recombinant virus were quantified by measuring luciferase activity in MT=2 cells infected for 4-5 days with the recombinant virus in the presence of serial dilutions of the compound.
The 50% effective concentration (EC50) was calculated by using the exponential form of the median effect equation where (Fa)=1/[1+(ED50/drug conc.)m] (Johnson V A, Byington RT. Infectivity Assay. In Techniques in HIV Research. ed. Aldovini A, Walker B D. 71-76. New York: Stockton Press.1990). The 50% inhibitory concentration (EC50) was calculated by using the exponential form of the median effect equation where percent inhibition=1/[1+(EC50/drug concentration)m], where m is a parameter that reflects the slope of the concentration-response curve.

[1] = Compound cytotoxicity, XTT-based colorimetric assay; conditions: human; uninfected MT2 cells, day 4, XTT
Description: (§1) Compound cytotoxicity and the corresponding CC50 values were determined using the same protocol as described in the antiviral assay except that uninfected cells were used. Cytotoxicity was assessed on day 4 in uninfected MT2 cells by using a XTT (2,3-bis[2-Methoxy-4-nitro-5-sulfophenyl]-2H-tetrazolium-5-carboxyanilide inner salt)-based colorimetric assay (Sigma-Aldrich, St Louis, Mo.).

uninfected MT2 cells = assay: as above
Description: as §1

[2] = Human immunodeficiency virus 1, NL43, MT2

Row | SMILES | pEC50 (recombinant NL4-3 virus; [2]) | CC50 at 4 days [1] [nM] | pEC50 (recombinant NL4-3 virus; MT-2 cells infected for 4-5 days with recombinant NL4-3 Renilla luciferase virus, read-out: EC50) | CC50 (uninfected MT2 cells) [nM]
1 | O=C(Cn1nc(C(F)F)cc1C1CC1)N[C@@H](Cc1cc(F)cc(F)c1)c1nc2cc(-c3ncccn3)ccc2c(=O)n1-c1ccc(Cl)c2c(NS(=O)(=O)C3CC3)nn(CC(F)F)c12 (atropisomer, axis not shown; (P)) [Example 34, (S)-N-(1-((3P)-3-(4-chloro-3-(cyclopropanesulfonamido)-1-(2,2-difluoroethyl)-1H-indazol-7-yl)-4-oxo-7-(pyrimidin-2-yl)-3,4-dihydroquinazolin-2-yl)-2-(3,5-difluorophenyl)ethyl)-2-(5-cyclopropyl-3-(difluoromethyl)-1H-pyrazol-1-yl)acetamide] | 9.40 | > 500 |  | 
2 | Cc1nccnc1-c1ccc2c(=O)n(-c3ccc(Cl)c4c(NS(=O)(=O)C5CC5)nn(CC(F)F)c34)c([C@H](Cc3cc(F)cc(F)c3)NC(=O)Cn3nc(C(F)F)cc3C3CC3)nc2c1 (atropisomer, axis not shown; (P)) [Example 35, (S)-N-(1-((3P)-3-(4-chloro-3-(cyclopropanesulfonamido)-1-(2,2-difluoroethyl)-1H-indazol-7-yl)-7-(3-methylpyrazin-2-yl)-4-oxo-3,4-dihydroquinazolin-2-yl)-2-(3,5-difluorophenyl)ethyl)-2-(5-cyclopropyl-3-(difluoromethyl)-1H-pyrazol-1-yl)acetamide] | 9.44 | > 500 |  | 
3 | Cc1cc(F)ccc1-c1ccc2c(=O)n(-c3ccc(C)c4c(NS(C)(=O)=O)nn(C)c34)c([C@H](Cc3cc(F)cc(F)c3)NC(=O)Cn3nc(C(F)F)c4c3C(F)(F)[C@@H]3C[C@H]43)nc2c1 (atropisomer, axis not shown; (aR)) [Example 31, 2-((3bS,4aR)-3-(difluoromethyl)-5,5-difluoro-3b,4,4a,5-tetrahydro-1H-cyclopropa[3,4]cyclopenta[1,2-c]pyrazol-1-yl)-N-((S)-2-(3,5-difluorophenyl)-1-(3-(1,4-dimethyl-3-(methylsulfonamido)-1H-indazol-7-yl)-(3P)-7-(4-fluoro-2-methylphenyl)-4-oxo-3,4-dihydroquinazolin-2-yl)ethyl)acetamide] | 8.64 | > 500 |  | 
4 | Cc1nccnc1-c1ccc2c(=O)n(-c3ccc(C)c4c(NS(C)(=O)=O)nn(C)c34)c(C(Cc3cc(F)cc(F)c3)NC(=O)Cn3nc(C(F)F)c4c3C(F)(F)[C@@H]3C[C@H]43)nc2c1 (stereo partly drawn) [Example 6, 2-((3bS,4aR)-3-(difluoromethyl)-5,5-difluoro-3b,4,4a,5-tetrahydro-1H-cyclopropa[3,4]cyclopenta[1,2-c]pyrazol-1-yl)-N-((S)-2-(3,5-difluorophenyl)-1-(3-(1,4-dimethyl-3-(methylsulfonamido)-1H-indazol-7-yl)-(3P)-7-(3-methylpyrazin-2-yl)-4-oxo-3,4-dihydroquinazolin-2-yl)ethyl)acetamide] | 10.25 | > 500 |  | 
5 | Cc1nccnc1-c1ccc2c(=O)n(-c3ccc(Cl)c4c(NS(C)(=O)=O)nn(C)c34)c([C@H](Cc3cc(F)cc(F)c3)NC(=O)Cc3cn(C(C)C)c4ccccc34)nc2c1 [Example 8, (S)-N-(1-((3P)-3-(4-chloro-1-methyl-3-(methylsulfonamido)-1H-indazol-7-yl)-7-(3-methylpyrazin-2-yl)-4-oxo-3,4-dihydroquinazolin-2-yl)-2-(3,5-difluorophenyl)ethyl)-2-(1-isopropyl-1H-indol-3-yl)acetamide] |  |  | 9.35 | > 500
6 | Cn1nc(NS(C)(=O)=O)c2c(Cl)ccc(-n3c([C@H](Cc4cc(F)cc(F)c4)NC(=O)Cn4ccc5ccccc54)nc4cc(-c5ccccc5F)ccc4c3=O)c21 [Example 30, (S)-N-(1-((3P)-3-(4-chloro-1-methyl-3-(methylsulfonamido)-1H-indazol-7-yl)-7-(2-fluorophenyl)-4-oxo-3,4-dihydroquinazolin-2-yl)-2-(3,5-difluorophenyl)ethyl)-2-(1H-indol-1-yl)acetamide] | 8.52 | > 500 |  | 
